Experimental data taken from patent US20210171948A1, “COMPOSITIONS AND METHODS FOR TARGETING GLYPICAN-2 IN THE TREATMENT OF CANCER” (Shepherd Therapeutics, Inc., priority 2019, published 2021).
Strand notation (5' to 3'): a small letter for the sugar, then the base; units joined by * are phosphorothioate-linked, units joined directly phosphodiester-linked; [ ] holds rarer units or linkages, { } end groups; capitals alone tell only the bases. d = 2'-deoxy (DNA); r = 2'-OH (RNA)

What was measured:
CHLA-90 cells [1] = test: Doxorubicin IC50 in siRNA-transfected cells, Cell Titer Glo viability (Example 8); format: cell-based
Protocol: (§1) GPC2 mRNA expression was reduced and changes in cell viability were assessed in multiple neuroblastoma cell lines. Cells were transfected with either a control siRNA or with GPC-2 siRNA sequences 3, 5 or 7 from Table 7 using the RNAiMAX Lipofectamine kit (Invitrogen, Carlsbad, Calif.) as previously described in 96 wells for viability assays. Doxorubicin was added at increasing concentrations (0-5 uM) to transfected cells at 24 hours post transfection. Following a 72 hour incubation period, viability measurements were made using Cell Titer Glo.

SK-N-BE2 cells [2] = test: as above; format: cell-based
Protocol: as §1

SH-SY5Y cells [3] = test: as above; format: cell-based
Protocol: as §1

CHP212 cells [4] = test: as above; format: cell-based
Protocol: as §1

GPC2 mRNA [5] = test: GPC2 mRNA knockdown in neuroblastoma cell lines (Example 4); format: cell-based, human
Protocol: GPC2 mRNA knockdown was assessed in multiple neuroblastoma cell lines. Cells were transfected with either a scrambled control siRNA, with GPC2 siRNA sequences 3 or 5 from Table 7, or with siRNA sequences generated by Dharmacon (sequences 12-15 from Table 7) using the RNAiMAX Lipofectamine kit (Invitrogen, Carlsbad, Calif.) as previously described. Following a 96 hour incubation period, total RNA samples were collected to compare knockdown efficiency and viability was measured in parallel plated cells.
The extent of GPC2 mRNA reduction was assessed with additional GPC2 siRNA sequences in the CHP212 neuroblastoma cell line. Cells were transfected with either a scrambled control siRNA or with GPC2 siRNA sequences 3 or 5, or with siRNA sequences 6-11 (Sigma) using the RNAiMAX Lipofectamine kit (Invitrogen, Carlsbad, Calif.) as previously described. Following a 96 hour incubation period, total RNA samples were collected and viability was measured in parallel plated cells.
The extent of GPC2 mRNA reduction (knockdown) and corresponding protein level expression changes were assessed in three neuroblastoma cell lines following siRNA knockdown of GPC2. The CHP212 neuroblastoma cell line (FIG. 5A and FIG. 5D), the SH-SY5Y neuroblastoma cell line (FIG. 5B and FIG. 5E) and the CHLA90 neuroblastoma cell line (FIG. 5C and FIG. 5F) were transfected with GPC2 siRNA sequences 5 and 7 from Table 7 and a scrambled control siRNA using the RNAiMAX Lipofectamine kit (Invitrogen, Carlsbad, Calif.) as previously described. Following a 24, 48, or 72 hour incubation period, cells were washed and total RNA was isolated for measuring GPC2 mRNA expression. For protein analysis, cells were fixed, immunostained using an antibody against GPC2 protein, protein expression was measured via flow cytometry. As shown, GPC2 mRNA knockdown was observed beginning at the 24 hr time point and lasted for at least 72 hours. GPC2 protein expression started to decrease at the 48 hr time point.

GPC2 mRNA [6] = test: GPC2 mRNA knockdown in neuroblastoma cell lines, representative data from a separate experiment (Tables 10-14); format: cell-based, human; set-up: concentration or dose not given beside the values
CHLA-90 cells [7] = test: Carboplatin IC50 in siRNA-transfected cells, Cell Titer Glo 2.0 viability (Example 6); format: cell-based
Protocol: as §1, with “reduced using the indicated siRNAs” for “reduced”, “GPC2” for “GPC-2”, “Carboplatin” for “Doxorubicin”, “(0 to 150” for “(0-5”, “Glo 2.0.” for “Glo.”

SK-N-BE2 cells [8] = test: as above; format: cell-based
Protocol: as §1, with “reduced using the indicated siRNAs” for “reduced”, “GPC2” for “GPC-2”, “Carboplatin” for “Doxorubicin”, “(0 to 150” for “(0-5”, “Glo 2.0.” for “Glo.”

SH-SY5Y cells [9] = test: as above; format: cell-based
Protocol: as §1, with “reduced using the indicated siRNAs” for “reduced”, “GPC2” for “GPC-2”, “Carboplatin” for “Doxorubicin”, “(0 to 150” for “(0-5”, “Glo 2.0.” for “Glo.”

CHP212 cells [10] = test: as above; format: cell-based
Protocol: as §1, with “reduced using the indicated siRNAs” for “reduced”, “GPC2” for “GPC-2”, “Carboplatin” for “Doxorubicin”, “(0 to 150” for “(0-5”, “Glo 2.0.” for “Glo.”

CHLA-90 cells [11] = test: Etoposide IC50 in siRNA-transfected cells, Cell Titer Glo 2.0 viability (Example 9); format: cell-based
Protocol: as §1, with “GPC2” for “GPC-2”, “Etoposide” for “Doxorubicin”, “(0-15” for “(0-5”, “measurement” for “measurements”, “Glo 2.0.” for “Glo.”

SK-N-BE2 cells [12] = test: as above; format: cell-based
Protocol: as §1, with “GPC2” for “GPC-2”, “Etoposide” for “Doxorubicin”, “(0-15” for “(0-5”, “measurement” for “measurements”, “Glo 2.0.” for “Glo.”

SH-SY5Y cells [13] = test: as above; format: cell-based
Protocol: as §1, with “GPC2” for “GPC-2”, “Etoposide” for “Doxorubicin”, “(0-15” for “(0-5”, “measurement” for “measurements”, “Glo 2.0.” for “Glo.”

CHP212 cells [14] = test: as above; format: cell-based; conditions: CHP212 cells transfected with the labelled siRNA; etoposide added 24 hours post transfection, 72 hour incubation
Protocol: as §1, with “GPC2” for “GPC-2”, “Etoposide” for “Doxorubicin”, “(0-15” for “(0-5”, “measurement” for “measurements”, “Glo 2.0.” for “Glo.”

Substance: GPC2 siRNA 7: siRNA duplex: sense CUCCUUUCUGGUUCACACA[dT][dT] (SEQ ID NO: 215), anti-sense UGUGUGAACCAGAAAGGAG[dT][dT] (SEQ ID NO: 216) (sense rCrUrCrCrUrUrUrCrUrGrGrUrUrCrArCrArCrAdTdT; antisense rUrGrUrGrUrGrArArCrCrArGrArArArGrGrArGdTdT; listed as Homo sapiens)
- Data Summary: effect of knockdown on sensitivity to doxorubicin (CHLA-90 cells [1]; CHLA-90): increases sensitivity to
- IC50 (CHLA-90 cells [1]; CHLA-90 cells transfected with the labelled siRNA, doxorubicin added 24 hours post transfection, 72 hour incubation): 130 nM
- Data Summary: effect of knockdown on sensitivity to doxorubicin (SK-N-BE2 cells [2]; SK-N-BE2): increases sensitivity to
- IC50 (SK-N-BE2 cells [2]; SK-N-BE2 cells transfected with the labelled siRNA, doxorubicin added 24 hours post transfection, 72 hour incubation): 200 nM
- Data Summary: effect of knockdown on sensitivity to doxorubicin (SH-SY5Y cells [3]; SH-SY5Y): KD with sequence 7 increases
- IC50 (SH-SY5Y cells [3]; SH-SY5Y cells transfected with the labelled siRNA, doxorubicin added 24 hours post transfection, 72 hour incubation): 30 nM
- Data Summary: effect of knockdown on sensitivity to doxorubicin (CHP212 cells [4]; CHP212): does not increase sensitivity
- IC50 (CHP212 cells [4]; CHP212 cells transfected with the labelled siRNA, doxorubicin added 24 hours post transfection, 72 hour incubation): 20 nM
- Time for which reduced GPC2 mRNA expression was sustained (GPC2 mRNA [5]; CHLA90 neuroblastoma cells (FIG. 5C)): 72 h
- Time point at which GPC2 mRNA knockdown was first observed (GPC2 mRNA [5]; CHP212, SH-SY5Y and CHLA90 neuroblastoma cell lines): 24 h
- Degree of GPC2 knockdown among sequences 3, 5, 6-11 (GPC2 mRNA [5]; CHP212 neuroblastoma cell line, 96 hour incubation (FIG. 4A)): greater
- Time for which reduced GPC2 mRNA expression was sustained (GPC2 mRNA [5]; CHP212 neuroblastoma cells (FIG. 5A)): 72 h
- Time for which reduced GPC2 mRNA expression was sustained (GPC2 mRNA [5]; SH-SY5Y neuroblastoma cells (FIG. 5B)): 72 h
- % KD; percent GPC2 mRNA reduction (knockdown) (GPC2 mRNA [6]; CHLA-90, compared to scrambled siRNA control): 65%
- % KD; percent GPC2 mRNA reduction (knockdown) (GPC2 mRNA [6]; CHLA-136, compared to scrambled siRNA control): 30%
- % KD; percent GPC2 mRNA reduction (knockdown) (GPC2 mRNA [6]; CHLA-172, compared to scrambled siRNA control): 20%
- % KD; percent GPC2 mRNA reduction (knockdown) (GPC2 mRNA [6]; CHP212, compared to scrambled siRNA control): 70%
- % KD; percent GPC2 mRNA reduction (knockdown) (GPC2 mRNA [6]; KELLY, compared to scrambled siRNA control): 73%
- % KD; percent GPC2 mRNA reduction (knockdown) (GPC2 mRNA [6]; SH-SY5Y, compared to scrambled siRNA control): 70%
- % KD; percent GPC2 mRNA reduction (knockdown) (GPC2 mRNA [6]; SK-N-BE2, compared to scrambled siRNA control): 69%
- % KD; percent GPC2 mRNA reduction (knockdown) (GPC2 mRNA [6]; SKNAS, compared to scrambled siRNA control): 64%
- Data Summary: effect of knockdown on sensitivity to carboplatin (CHLA-90 cells [7]; CHLA-90): increases sensitivity to
- IC50 (CHLA-90 cells [7]; CHLA-90 cells transfected with the labelled siRNA, carboplatin added 24 hours post transfection, 72 hour incubation): 15000 nM
- Data Summary: effect of knockdown on sensitivity to carboplatin (SK-N-BE2 cells [8]; SK-N-BE2): increases sensitivity to
- IC50 (SK-N-BE2 cells [8]; SK-N-BE2 cells transfected with the labelled siRNA, carboplatin added 24 hours post transfection, 72 hour incubation): 2500 nM
- Data Summary: effect of knockdown on sensitivity to carboplatin (SH-SY5Y cells [9]; SH-SY5Y): increases sensitivity to
- IC50 (SH-SY5Y cells [9]; SH-SY5Y cells transfected with the labelled siRNA, carboplatin added 24 hours post transfection, 72 hour incubation): 470 nM
- Data Summary: effect of knockdown on sensitivity to carboplatin (CHP212 cells [10]; CHP212): increases sensitivity to
- IC50 (CHP212 cells [10]; CHP212 cells transfected with the labelled siRNA, carboplatin added 24 hours post transfection, 72 hour incubation): 8140 nM
- Data Summary: effect of knockdown on sensitivity to etoposide (CHLA-90 cells [11]; CHLA-90): increases sensitivity to etoposide
- IC50 (CHLA-90 cells [11]; CHLA-90 cells transfected with the labelled siRNA, etoposide added 24 hours post transfection, 72 hour incubation): 130 nM
- Data Summary: effect of knockdown on sensitivity to etoposide (SK-N-BE2 cells [12]; SK-N-BE2): 7 increases sensitivity to etoposide
- IC50 (SK-N-BE2 cells [12]; SK-N-BE2 cells transfected with the labelled siRNA, etoposide added 24 hours post transfection, 72 hour incubation): 200 nM
- Data Summary: effect of knockdown on sensitivity to etoposide (SH-SY5Y cells [13]; SH-SY5Y): 7 increases sensitivity to etoposide
- IC50 (SH-SY5Y cells [13]; SH-SY5Y cells transfected with the labelled siRNA, etoposide added 24 hours post transfection, 72 hour incubation): 30 nM
- IC50 (CHP212 cells [14]): 20 nM
